In ChEMBL document CHEMBL4507316 (2021):

Assays:
[1] = biological target: MAP kinase-activated protein kinase 2 (Homo sapiens) (UniProt P49137); test: MAPKAPK2 ProQinase selectivity panel; details: Compound concentration 1.0 uM
[2] = biological target: Mitogen-activated protein kinase kinase kinase 14 (Homo sapiens) (UniProt Q99558); test: NIK ProQinase selectivity panel; details: Compound concentration 1.0 uM
[3] = biological target: Mitogen-activated protein kinase 1 (Homo sapiens) (UniProt P28482); test: ERK2 ProQinase selectivity panel; details: Compound concentration 1.0 uM
[4] = biological target: 5-hydroxytryptamine receptor 2B (Homo sapiens, UniProt P41595); test: GPCRScan assay: inhibition of 5-HT2B; parameters: radioligand conc. used [nm] 1.0 – 2.0, parental cells stable HEK
5-hydroxytryptamine receptor 2B, sequence (P41595 whole entry): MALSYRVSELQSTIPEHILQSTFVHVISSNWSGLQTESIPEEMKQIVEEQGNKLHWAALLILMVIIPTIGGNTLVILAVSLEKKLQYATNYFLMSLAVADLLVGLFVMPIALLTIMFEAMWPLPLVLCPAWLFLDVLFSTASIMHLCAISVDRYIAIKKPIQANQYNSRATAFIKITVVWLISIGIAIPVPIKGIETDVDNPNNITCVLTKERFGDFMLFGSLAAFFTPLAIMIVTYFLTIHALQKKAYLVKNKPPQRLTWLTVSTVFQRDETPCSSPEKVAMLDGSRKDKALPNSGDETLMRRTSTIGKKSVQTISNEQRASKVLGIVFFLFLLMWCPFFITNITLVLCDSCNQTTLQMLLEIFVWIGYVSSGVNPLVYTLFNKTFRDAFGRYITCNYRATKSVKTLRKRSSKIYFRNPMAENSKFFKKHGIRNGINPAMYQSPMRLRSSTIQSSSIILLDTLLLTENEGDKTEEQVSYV

[5] = biological target: Tyrosine-protein kinase receptor TYRO3 (Homo sapiens) (UniProt Q06418); test: TYRO3 ProQinase selectivity panel; details: Compound concentration 1.0 uM
[6] = biological target: Sigma intracellular receptor 2 (Homo sapiens, UniProt Q5BJF2); test: GPCRScan assay: inhibition of Sigma 2; parameters: radioligand conc. used [nm] 5.0, parental cells HEKT
Sigma intracellular receptor 2, sequence (Q5BJF2 whole entry): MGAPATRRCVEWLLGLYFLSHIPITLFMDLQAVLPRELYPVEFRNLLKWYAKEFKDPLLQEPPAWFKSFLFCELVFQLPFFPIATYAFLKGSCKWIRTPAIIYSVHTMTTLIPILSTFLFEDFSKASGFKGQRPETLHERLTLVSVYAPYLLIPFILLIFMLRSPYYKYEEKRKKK

[7] = biological target: G protein-coupled receptor kinase 6 (Homo sapiens) (UniProt P43250); test: GRK6 ProQinase selectivity panel; details: Compound concentration 1.0 uM
[8] = biological target: Casein kinase I isoform alpha (Homo sapiens) (UniProt P48729); test: CK1-alpha1 ProQinase selectivity panel; details: Compound concentration 1.0 uM
[9] = biological target: Serine/threonine-protein kinase Nek7 (Homo sapiens) (UniProt Q8TDX7); test: NEK7 ProQinase selectivity panel; details: Compound concentration 1.0 uM
[10] = biological target: Calcium/calmodulin-dependent protein kinase kinase 1 (Homo sapiens) (UniProt Q8N5S9); test: CAMKK1 ProQinase selectivity panel; details: Compound concentration 1.0 uM
[11] = biological target: Mitogen-activated protein kinase kinase kinase 10 (Homo sapiens) (UniProt Q02779); test: MAP3K10 ProQinase selectivity panel; details: Compound concentration 1.0 uM
Mitogen-activated protein kinase kinase kinase 10 (Homo sapiens), sequence (Q02779 whole entry, looked up): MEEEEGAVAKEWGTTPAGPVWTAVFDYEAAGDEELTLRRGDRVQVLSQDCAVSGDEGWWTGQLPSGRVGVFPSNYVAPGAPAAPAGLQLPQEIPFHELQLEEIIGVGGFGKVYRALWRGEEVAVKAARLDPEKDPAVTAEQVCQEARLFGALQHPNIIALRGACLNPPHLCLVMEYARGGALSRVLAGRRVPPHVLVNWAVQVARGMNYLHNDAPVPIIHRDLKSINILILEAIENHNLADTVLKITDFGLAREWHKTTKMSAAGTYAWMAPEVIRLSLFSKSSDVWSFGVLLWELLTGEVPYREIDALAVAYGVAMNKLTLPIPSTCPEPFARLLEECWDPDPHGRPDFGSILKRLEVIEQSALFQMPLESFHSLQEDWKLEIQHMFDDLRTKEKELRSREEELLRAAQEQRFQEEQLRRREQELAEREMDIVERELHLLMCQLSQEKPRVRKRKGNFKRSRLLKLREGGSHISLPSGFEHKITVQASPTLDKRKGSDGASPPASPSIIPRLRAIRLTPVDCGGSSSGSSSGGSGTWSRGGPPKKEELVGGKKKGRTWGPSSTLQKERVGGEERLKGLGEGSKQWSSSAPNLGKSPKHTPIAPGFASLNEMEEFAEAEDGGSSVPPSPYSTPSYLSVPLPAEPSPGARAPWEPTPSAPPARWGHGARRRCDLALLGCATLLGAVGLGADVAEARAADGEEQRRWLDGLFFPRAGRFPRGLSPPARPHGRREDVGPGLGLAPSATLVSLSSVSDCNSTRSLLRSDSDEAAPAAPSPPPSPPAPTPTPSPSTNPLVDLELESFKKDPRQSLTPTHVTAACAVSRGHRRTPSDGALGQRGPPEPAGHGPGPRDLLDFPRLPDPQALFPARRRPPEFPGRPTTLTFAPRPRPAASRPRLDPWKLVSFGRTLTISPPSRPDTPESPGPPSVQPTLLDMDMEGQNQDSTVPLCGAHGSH

[12] = biological target: CDK6/cyclin D1 (Homo sapiens) (UniProt P24385+Q00534); test: CDK6/CycD1 ProQinase selectivity panel; format: protein-complex assay; details: Compound concentration 1.0 uM
[13] = biological target: Alpha-1A adrenergic receptor (Homo sapiens) (UniProt P35348); details: Compound concentration 10.0 uM
[14] = biological target: Mitogen-activated protein kinase kinase kinase kinase 4 (Homo sapiens) (UniProt O95819); test: MAP4K4 ProQinase selectivity panel; details: Compound concentration 1.0 uM
Mitogen-activated protein kinase kinase kinase kinase 4 (Homo sapiens), sequence (O95819 2-1239 limits assumed): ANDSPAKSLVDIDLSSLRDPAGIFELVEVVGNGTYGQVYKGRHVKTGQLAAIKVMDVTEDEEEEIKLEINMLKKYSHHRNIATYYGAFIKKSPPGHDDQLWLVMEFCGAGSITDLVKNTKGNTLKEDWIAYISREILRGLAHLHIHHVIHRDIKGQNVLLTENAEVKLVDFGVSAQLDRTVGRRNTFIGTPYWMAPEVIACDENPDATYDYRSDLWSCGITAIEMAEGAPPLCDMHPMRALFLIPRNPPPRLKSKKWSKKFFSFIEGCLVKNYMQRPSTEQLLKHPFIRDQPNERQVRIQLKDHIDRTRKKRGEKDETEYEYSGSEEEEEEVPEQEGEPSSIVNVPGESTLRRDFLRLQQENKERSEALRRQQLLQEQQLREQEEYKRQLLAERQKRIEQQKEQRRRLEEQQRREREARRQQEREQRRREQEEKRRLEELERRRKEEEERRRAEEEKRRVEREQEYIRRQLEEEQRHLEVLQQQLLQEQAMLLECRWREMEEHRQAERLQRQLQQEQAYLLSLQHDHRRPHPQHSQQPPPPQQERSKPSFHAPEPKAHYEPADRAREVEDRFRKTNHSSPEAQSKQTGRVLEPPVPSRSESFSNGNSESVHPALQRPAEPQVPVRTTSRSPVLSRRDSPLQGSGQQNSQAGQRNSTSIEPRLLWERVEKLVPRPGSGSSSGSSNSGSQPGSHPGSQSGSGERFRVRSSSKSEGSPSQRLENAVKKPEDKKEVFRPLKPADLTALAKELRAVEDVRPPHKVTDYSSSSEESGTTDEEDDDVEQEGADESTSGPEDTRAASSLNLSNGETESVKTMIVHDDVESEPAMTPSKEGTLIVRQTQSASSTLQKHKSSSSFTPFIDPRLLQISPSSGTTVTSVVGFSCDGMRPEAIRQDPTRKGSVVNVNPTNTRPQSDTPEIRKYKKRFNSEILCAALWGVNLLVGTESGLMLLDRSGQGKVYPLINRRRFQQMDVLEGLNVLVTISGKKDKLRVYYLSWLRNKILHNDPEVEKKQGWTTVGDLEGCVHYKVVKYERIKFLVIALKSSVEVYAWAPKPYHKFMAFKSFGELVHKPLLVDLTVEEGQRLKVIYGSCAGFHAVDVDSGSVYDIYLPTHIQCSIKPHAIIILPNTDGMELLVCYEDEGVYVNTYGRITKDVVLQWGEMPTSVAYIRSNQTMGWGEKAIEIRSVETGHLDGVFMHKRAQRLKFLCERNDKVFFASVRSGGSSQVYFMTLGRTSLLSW

[15] = biological target: Serine/threonine-protein kinase Sgk3 (Homo sapiens) (UniProt Q96BR1); test: SGK3 ProQinase selectivity panel; details: Compound concentration 1.0 uM
[16] = biological target: PAS domain-containing serine/threonine-protein kinase (Homo sapiens) (UniProt Q96RG2); test: PASK ProQinase selectivity panel; details: Compound concentration 1.0 uM
[17] = biological target: Proto-oncogene tyrosine-protein kinase receptor Ret (Homo sapiens) (UniProt P07949); test: RET wt ProQinase selectivity panel; details: Compound concentration 1.0 uM
[18] = biological target: DNA-dependent protein kinase catalytic subunit (Homo sapiens) (UniProt P78527); test: DNA-PK ProQinase selectivity panel; details: Compound concentration 1.0 uM
[19] = biological target: G protein-coupled receptor kinase 3 (Homo sapiens) (UniProt P35626); test: GRK3 ProQinase selectivity panel; details: Compound concentration 1.0 uM
[20] = biological target: 5-hydroxytryptamine receptor 2A (Homo sapiens, UniProt P28223); test: GPCRScan assay: inhibition of 5-HT2A; parameters: radioligand conc. used [nm] 1.2 – 2.4, parental cells HEKT
5-hydroxytryptamine receptor 2A, sequence (P28223 whole entry): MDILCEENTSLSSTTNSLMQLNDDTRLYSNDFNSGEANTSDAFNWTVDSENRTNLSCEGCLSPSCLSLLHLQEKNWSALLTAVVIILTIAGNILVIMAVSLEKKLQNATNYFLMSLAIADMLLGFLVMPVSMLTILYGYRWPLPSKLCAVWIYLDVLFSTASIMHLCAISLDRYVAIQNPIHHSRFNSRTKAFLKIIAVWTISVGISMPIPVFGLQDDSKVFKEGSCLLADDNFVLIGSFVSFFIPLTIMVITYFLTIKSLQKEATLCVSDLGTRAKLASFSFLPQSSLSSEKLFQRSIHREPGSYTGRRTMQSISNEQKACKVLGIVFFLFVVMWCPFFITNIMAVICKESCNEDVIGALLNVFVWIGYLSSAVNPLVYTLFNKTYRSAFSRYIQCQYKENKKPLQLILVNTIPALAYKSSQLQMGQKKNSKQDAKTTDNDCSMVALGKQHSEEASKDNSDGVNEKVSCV

[21] = biological target: Beta-1 adrenergic receptor (Homo sapiens) (UniProt P08588); details: Compound concentration 10.0 uM
[22] = biological target: Maternal embryonic leucine zipper kinase (Homo sapiens) (UniProt Q14680); test: MELK ProQinase selectivity panel; details: Compound concentration 1.0 uM
[23] = biological target: Eukaryotic elongation factor 2 kinase (Homo sapiens) (UniProt O00418); test: EEF2K ProQinase selectivity panel; details: Compound concentration 1.0 uM
[24] = biological target: Delta-type opioid receptor (Homo sapiens) (UniProt P41143); details: Compound concentration 10.0 uM
[25] = biological target: 5-hydroxytryptamine receptor 1E (Homo sapiens) (UniProt P28566); details: Compound concentration 10.0 uM
[26] = biological target: LIM domain kinase 2 (Homo sapiens) (UniProt P53671); test: LIMK2 ProQinase selectivity panel; details: Compound concentration 1.0 uM
[27] = biological target: Ribosomal protein S6 kinase alpha-4 (Homo sapiens) (UniProt O75676); test: RPS6KA4 ProQinase selectivity panel; details: Compound concentration 1.0 uM
[28] = biological target: Mitogen-activated protein kinase kinase kinase kinase 5 (Homo sapiens) (UniProt Q9Y4K4); test: MAP4K5 ProQinase selectivity panel; details: Compound concentration 1.0 uM
[29] = biological target: CDK1/Cyclin E (Homo sapiens) (UniProt P06493+P24864); test: CDK1/CycE ProQinase selectivity panel; format: protein-complex assay; details: Compound concentration 1.0 uM
[30] = biological target: Tyrosine-protein kinase Fer (Homo sapiens) (UniProt P16591); test: FER ProQinase selectivity panel; details: Compound concentration 1.0 uM
[31] = biological target: GABA-A receptor; anion channel (Rattus norvegicus) (UniProt O09028+P15431+P18506+P18508+P19969+P20236+P23574+P23576+P28471+P28473+P30191+P62813+P63079+P63138+Q91ZM7+Q9ES14); details: Compound concentration 10.0 uM
[32] = biological target: BDNF/NT-3 growth factors receptor (Homo sapiens) (UniProt Q16620); test: TRK-B ProQinase selectivity panel; details: Compound concentration 1.0 uM
BDNF/NT-3 growth factors receptor (Homo sapiens), sequence (Q16620 32-822 limits assumed): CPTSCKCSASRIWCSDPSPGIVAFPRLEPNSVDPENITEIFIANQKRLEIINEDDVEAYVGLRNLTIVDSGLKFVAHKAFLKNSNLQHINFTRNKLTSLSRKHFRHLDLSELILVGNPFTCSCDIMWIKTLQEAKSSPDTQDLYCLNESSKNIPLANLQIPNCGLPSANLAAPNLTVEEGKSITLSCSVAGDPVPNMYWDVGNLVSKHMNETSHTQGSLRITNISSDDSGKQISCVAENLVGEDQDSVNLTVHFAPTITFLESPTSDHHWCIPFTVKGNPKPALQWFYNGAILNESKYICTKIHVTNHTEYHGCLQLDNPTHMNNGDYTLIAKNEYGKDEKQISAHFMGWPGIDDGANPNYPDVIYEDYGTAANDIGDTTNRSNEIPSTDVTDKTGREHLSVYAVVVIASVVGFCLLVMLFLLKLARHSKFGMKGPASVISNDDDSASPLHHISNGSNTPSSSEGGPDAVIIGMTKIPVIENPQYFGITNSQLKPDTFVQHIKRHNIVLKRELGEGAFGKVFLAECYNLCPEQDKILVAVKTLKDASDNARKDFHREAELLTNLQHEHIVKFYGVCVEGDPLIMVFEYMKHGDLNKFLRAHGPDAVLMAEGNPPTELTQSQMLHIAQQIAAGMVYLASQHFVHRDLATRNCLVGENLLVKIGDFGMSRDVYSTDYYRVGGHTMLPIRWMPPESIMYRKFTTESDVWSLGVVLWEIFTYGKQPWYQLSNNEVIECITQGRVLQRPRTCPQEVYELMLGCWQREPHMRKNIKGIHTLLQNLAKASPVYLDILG

[33] = biological target: Muscle, skeletal receptor tyrosine-protein kinase (Homo sapiens) (UniProt O15146); test: MUSK ProQinase selectivity panel; details: Compound concentration 1.0 uM
[34] = biological target: NUAK family SNF1-like kinase 1 (Homo sapiens) (UniProt O60285); test: ARK5 ProQinase selectivity panel; details: Compound concentration 1.0 uM
[35] = biological target: MAP/microtubule affinity-regulating kinase 3 (Homo sapiens) (UniProt P27448); test: MARK3 ProQinase selectivity panel; details: Compound concentration 1.0 uM
[36] = biological target: Serine/threonine-protein kinase PAK 2 (Homo sapiens) (UniProt Q13177); test: PAK2 ProQinase selectivity panel; details: Compound concentration 1.0 uM
[37] = biological target: Death-associated protein kinase 1 (Homo sapiens) (UniProt P53355); test: DAPK1 ProQinase selectivity panel; details: Compound concentration 1.0 uM
[38] = biological target: Rho-associated protein kinase 2 (Homo sapiens) (UniProt O75116); test: ROCK2 ProQinase selectivity panel; details: Compound concentration 1.0 uM
[39] = biological target: Tyrosine-protein kinase ITK/TSK (Homo sapiens) (UniProt Q08881); test: ITK ProQinase selectivity panel; details: Compound concentration 1.0 uM
[40] = biological target: Inhibitor of nuclear factor kappa-B kinase subunit beta (Homo sapiens) (UniProt O14920); test: IKK-beta ProQinase selectivity panel; details: Compound concentration 1.0 uM
[41] = biological target: Activin receptor type-1B (Homo sapiens) (UniProt P36896); test: ACV-R1B ProQinase selectivity panel; details: Compound concentration 1.0 uM
[42] = biological target: Protein kinase C epsilon type (Homo sapiens) (UniProt Q02156); test: PKC-epsilon ProQinase selectivity panel; details: Compound concentration 1.0 uM
[43] = biological target: Proto-oncogene tyrosine-protein kinase Src (Homo sapiens) (UniProt P12931); test: SRC ProQinase selectivity panel; details: Compound concentration 1.0 uM
[44] = biological target: Vascular endothelial growth factor receptor 2 (Homo sapiens) (UniProt P35968); test: VEGF-R2 ProQinase selectivity panel; details: Compound concentration 1.0 uM
[45] = biological target: Serine/threonine-protein kinase 25 (Homo sapiens) (UniProt O00506); test: STK25 ProQinase selectivity panel; details: Compound concentration 1.0 uM
Serine/threonine-protein kinase 25 (Homo sapiens), sequence (O00506 whole entry, looked up): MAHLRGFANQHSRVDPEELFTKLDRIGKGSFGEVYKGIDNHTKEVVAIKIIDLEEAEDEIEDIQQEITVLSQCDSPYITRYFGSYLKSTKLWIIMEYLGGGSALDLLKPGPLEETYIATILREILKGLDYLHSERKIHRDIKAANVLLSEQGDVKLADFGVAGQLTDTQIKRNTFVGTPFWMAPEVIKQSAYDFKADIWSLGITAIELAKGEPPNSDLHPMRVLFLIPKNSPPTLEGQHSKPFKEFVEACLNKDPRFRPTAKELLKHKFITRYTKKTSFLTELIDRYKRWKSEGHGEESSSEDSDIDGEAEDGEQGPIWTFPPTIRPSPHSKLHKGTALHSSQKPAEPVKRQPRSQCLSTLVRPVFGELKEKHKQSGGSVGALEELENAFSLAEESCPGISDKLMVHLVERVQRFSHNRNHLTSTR

[46] = biological target: Serine/threonine-protein kinase Nek6 (Homo sapiens) (UniProt Q9HC98); test: NEK6 ProQinase selectivity panel; details: Compound concentration 1.0 uM
Serine/threonine-protein kinase Nek6 (Homo sapiens), sequence (Q9HC98 whole entry): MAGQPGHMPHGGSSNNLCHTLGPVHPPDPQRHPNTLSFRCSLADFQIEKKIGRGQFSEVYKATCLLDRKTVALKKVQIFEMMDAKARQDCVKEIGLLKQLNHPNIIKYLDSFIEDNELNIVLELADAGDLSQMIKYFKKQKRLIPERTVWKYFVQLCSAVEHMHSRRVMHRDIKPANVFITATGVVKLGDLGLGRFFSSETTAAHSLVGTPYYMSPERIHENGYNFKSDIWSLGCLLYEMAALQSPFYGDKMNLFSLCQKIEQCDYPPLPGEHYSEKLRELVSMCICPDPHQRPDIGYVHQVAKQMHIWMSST

[47] = biological target: Ribosomal protein S6 kinase beta-1 (Homo sapiens) (UniProt P23443); test: S6K ProQinase selectivity panel; details: Compound concentration 1.0 uM

## O=C1c2ccc(Nc3ccc(F)cc3F)cc2CCc2ccc(OC[C@H](O)CO)cc21 [Skepinone-L]
[1]
  % Residual activity with Skepinone-L: 80%
[2]
  % Residual activity with Skepinone-L: 96%
[3]
  % Residual activity with Skepinone-L: 83%
[4]; read-out: Ki
  Ki: 0.172 µM
[4]; read-out: pKi (converted)
  Ki: 0.166 µM
[5]
  % Residual activity with Skepinone-L: 108%
[6]; read-out: Ki
  Ki: 3.36 µM
[6]; read-out: pKi (converted)
  Ki: 3.24 µM
[7]
  % Residual activity with Skepinone-L: 82%
[8]
  % Residual activity with Skepinone-L: 97%
[9]
  % Residual activity with Skepinone-L: 83%
[10]
  % Residual activity with Skepinone-L: 83%
[11]
  % Residual activity with Skepinone-L: 101%
[12]
  % Residual activity with Skepinone-L: 88%
[13]
  inhibition: 21.8%
[14]
  % Residual activity with Skepinone-L: 79%
[15]
  % Residual activity with Skepinone-L: 102%
[16]
  % Residual activity with Skepinone-L: 88%
[17]
  % Residual activity with Skepinone-L: 102%
[18]
  % Residual activity with Skepinone-L: 82%
[19]
  % Residual activity with Skepinone-L: 95%
[20]; read-out: Ki
  Ki: 3.71 µM
[20]; read-out: pKi (converted)
  Ki: 3.39 µM
[21]
  inhibition: 30.4%
[22]
  % Residual activity with Skepinone-L: 81%
[23]
  % Residual activity with Skepinone-L: 88%
[24]
  inhibition: 10.3%
[25]
  inhibition: 18.8%
[26]
  % Residual activity with Skepinone-L: 100%
[27]
  % Residual activity with Skepinone-L: 107%
[28]
  % Residual activity with Skepinone-L: 84%
[29]
  % Residual activity with Skepinone-L: 87%
[30]
  % Residual activity with Skepinone-L: 101%
[31]
  inhibition: 8.2%
[32]
  % Residual activity with Skepinone-L: 77%
[33]
  % Residual activity with Skepinone-L: 106%
[34]
  % Residual activity with Skepinone-L: 115%
[35]
  % Residual activity with Skepinone-L: 95%
[36]
  % Residual activity with Skepinone-L: 83%
[37]
  % Residual activity with Skepinone-L: 86%
[38]
  % Residual activity with Skepinone-L: 90%
[39]
  % Residual activity with Skepinone-L: 97%
[40]
  % Residual activity with Skepinone-L: 81%
[41]
  % Residual activity with Skepinone-L: 77%
[42]
  % Residual activity with Skepinone-L: 99%
[43]
  % Residual activity with Skepinone-L: 119%
[44]
  % Residual activity with Skepinone-L: 91%
[45]
  % Residual activity with Skepinone-L: 100%
[46]
  % Residual activity with Skepinone-L: 97%
[47]
  % Residual activity with Skepinone-L: 85%
